Values quoted from earlier work in article PMC9410468 (Marine Drugs, 2022).

Tested on: rats
Details: rat, in vivo; cited from earlier work
Description: In the mammalian brain, the medial habenula (MHB) expresses high nAChR levels. Recently, α3-containing nAChRs present in the medial habenula have attracted substantial attention because of their potential role in influencing nicotine addiction. In addition, recent studies have shown that the gene polymorphism of the α3 and β4 subunits in vivo are related to nicotine addiction and drug abuse. The α3β4 nAChR subtype is mainly located in the MHB, […] (IPN), and fasciculus retroflexus (FR) of the rat brain. In addition, it is also expres ...

AT-1001
effect on nicotine self-administration (in words): reduce nicotine self-administration in rats
